{"source": "paper PMC11945475", "about": "“Nasal Administration of a Nanoemulsion Based on Methyl Ferulate and Eugenol Encapsulated in Chitosan Oleate: Uptake Studies in the Central Nervous System” (Pharmaceutics, 2025)", "key": {"[1]": {"test": "Encapsulation efficiency (ultrafiltration method, HPLC)", "type": "physicochemical", "details": "CS-OA NE, ultrafiltration 50K MWCO", "experimental": "EE% was calculated by Equation (2):(2) EE%= total drug amount in CS-OA NE - drug amount in external phase/total drug amount in CS-OA NE × 100"}, "[2]": {"test": "In vitro drug release from CS-OA NE (dialysis tubing)", "type": "physicochemical", "details": "PBS pH 6.2, 32 °C", "experimental": "The membrane was immersed in 50 mL of PBS (pH 6.2) at 32 ± 2 °C. The release medium was kept under constant magnetic stirring. Aliquots (1 mL) were withdrawn at predetermined intervals ranging from 15 min to 4 h and replaced with an equal volume of fresh PBS. The Fer-Me and eugenol released were quantified using the HPLC method."}, "[3]": {"details": "for remaining percentage (residual % content) in NE: 672 h; for content in CS-OA NE used for cellular and in vivo studies / loading in NE: CS-OA NE; for final concentration in NE: loaded in CS-OA NE, immediately after preparation, four batches", "experimental": "The eugenol and Fer-Me quantification was performed using an HPLC apparatus, coupled with a UV-Vis Variable Wavelength Detector equipped with a deuterium lamp with a wavelength accuracy of ±1 nm (Agilent 1100 Series, model G1314A, Santa Clara, CA, USA). The mobile phase was constituted by a mixture of CH3CN and H2O 38:62 (v/v) acidified with formic acid at pH 3.25, the flow rate was maintained at 1 mL/min, and separations were performed at room temperature on a 150 mm × 4.6 mm, […]. SUPELCOSIL^TM LC-18 endcapped silica column (Supelco®, Merck, Milan, Italy). Eugenol was detected at a wavelength of 210 nm, while Fer-Me was detected at 320 nm. The injection volume was 20 µL for each sample. […] An ANOVA was performed to assess the feasibility of averaging the peak area values across three calibration curves for both the analytes. […] Both standard curve and NE samples were injected after dilution in a mixture of mobile phase and acetate buffer (5 mM); every analysis on each sample was done in triplicate.\nThe yield of the process was verified by quantifying by HPLC analysis Fer-Me and eugenol loaded into the CS-OA NEs immediately after preparation and after 1, 2, and 4 weeks of storage at 4 °C. […] Fer-Me and eugenol were quantified by the HPLC method into the external aqueous phase, passing through the membrane as permeate."}, "[4]": {"tested_on": "RPMI 2650 cells", "experimental": "RPMI 2650 cells were used to evaluate in vitro the possible CS-OA NE cytotoxicity as well as Fer-Me and eugenol cell uptake.\nRPMI 2650 cells were cultured on 75 cm^2 polystyrene cell culture flasks in Advanced Minimum Essential Medium (A-MEM), which was supplemented with 10% fetal bovine serum (FBS), 2 mM L-glutamine, 100 IU/mL penicillin, and 100 μg/mL streptomycin. The cells were maintained in a humidified atmosphere containing 5% CO2 at 37 °C. Cells were split twice using trypsin-EDTA at 37 °C before being seeded and allowed to grow to approximately 90% confluence for 3-(4,5-dimethylthiazol-2-yl)-2,5-diphenyltetrazolium (MTT) assays and uptake studies. Cell counting was performed using Scepter™ 2.0 handheld automated cell counter (Merck Millipore, Milan, Italy).\nRPMI 2650 cells were seeded in a 12-well plate at a density of 8 × 10^4 cells/well containing 2 mL of culture A-MEM. […] The corresponding solution of pure compounds (approximated to 250 µM and 600 µM concentrations of Fer-Me and eugenol, respectively), and raw Fer-Me (corresponding to a 250 µM solution) added directly to the wells as powder, were used as comparison. In particular, 2 mL of diluted CS-OA NE or the corresponding solution of pure compounds was added to the test wells, and the plate was incubated for pre-determined interval times (10, 30, and 60 min) in a humidified 5% CO2 atmosphere at 37 °C. As for raw Fer-Me incubation, 0.1 mg was accurately weighed (analytical balance Sartorius CP 225D), added to each well containing 2 mL of complete A-MEM, and incubated at 37 °C in an orbital shaker for the same pre-determined interval times above indicated. All media were removed at the end of the incubation. […] After thawing, the lysate was centrifuged twice (16,000× g for 10 min) and the supernatant was immediately injected into the HPLC apparatus (20 μL) to quantify Fer-Me and eugenol (see below). The final number of cells was evaluated on untreated wells after their trypsinization and counted using the Scepter^TM 2.0 automated cell counter (Merck Millipore, Milan, Italy). Each reported value represents the mean of three independent incubation experiments expressed as nanomoles of compounds for 10^6 cells. The uptake efficiencies were calculated as the compound amount quantified in cell lysate 10 min after the onset of the incubation compared to the initial compound amount incubated in cell media (%). […]\nThe quantification of eugenol and Fer-Me was performed by using a modular HPLC system composed of a pump (model LC-40D), DAD detector (model SPD-M40, Shimadzu, Kyoto, Japan), as well as an injection valve with a 20 μL sample loop (model 7725; Rheodyne, IDEX, Torrance, CA, USA). […]"}}, "note": "Like-named read-outs stand apart in the source and are kept apart here."}
{"smiles": "C=CCc1ccc(O)c(OC)c1", "note": "[eugenol]", "values": [{"measurement": "EE% (encapsulation efficiency)", "setting": "[1]", "value": 87.9, "unit": "%"}, {"measurement": "in vitro release from CS-OA NE", "setting": "[2]; 30 min", "value": 25.2, "unit": "%"}, {"measurement": "in vitro release from CS-OA NE", "setting": "[2]; 240 min", "value": 97.5, "unit": "%"}, {"measurement": "remaining percentage (residual % content) in NE", "setting": "[3]", "value": "about 71%"}, {"measurement": "content in CS-OA NE used for cellular and in vivo studies", "setting": "[3]", "value": "~12", "unit": "mM"}, {"measurement": "loading in NE", "setting": "[3]", "value": "~2", "unit": "mg/mL"}, {"measurement": "final concentration in NE", "setting": "[3]", "value": "260.0 ± 0.5 µg per 100 µL of NE"}, {"measurement": "intracellular amount", "setting": "[4]; human, 10 min, 600 µM", "value": "60.80 ± 5.09", "unit": "nmol/10^6 cells"}, {"measurement": "uptake efficiency at 10 min", "setting": "[4]; human, 10 min, 600 µM", "value": "0.77 ± 0.10", "unit": "%"}, {"measurement": "intracellular amount", "setting": "[4]; human, 60 min, 600 µM", "value": "57.41 ± 2.80", "unit": "nmol/10^6 cells"}]}
{"smiles": "COC(=O)/C=C/c1ccc(O)c(OC)c1", "note": "[Fer-Me, methyl ferulate]", "values": [{"measurement": "EE% (encapsulation efficiency)", "setting": "[1]", "value": 90.2, "unit": "%"}, {"measurement": "in vitro release from CS-OA NE", "setting": "[2]; 30 min", "value": 24.9, "unit": "%"}, {"measurement": "in vitro release from CS-OA NE", "setting": "[2]; 240 min", "value": 96.9, "unit": "%"}, {"measurement": "remaining percentage (residual % content) in NE", "setting": "[3]", "value": "about 81%"}, {"measurement": "content in CS-OA NE used for cellular and in vivo studies", "setting": "[3]", "value": "about 5 mM"}, {"measurement": "loading in NE", "setting": "[3]", "value": "about 1 mg/mL"}, {"measurement": "final concentration in NE", "setting": "[3]", "value": "123.0 ± 0.2 µg per 100 µL of NE"}, {"measurement": "uptake efficiency at 10 min", "setting": "[4]", "value": "0.80 ± 0.12", "unit": "%"}]}
